The text below walks through data of a melting point compilation (Tetko et al.; mined from patent text by program, amines drawn as free bases though some values may be those of a salt).

As for `CC1(C)C=Cc2cc(C(=O)NCCO)ccc2O1`, the melting point (usually the temperature, or range, at which the solid turns liquid) fell in the range of 60 to 70 °C.
The same measure for `CS(=O)(=O)c1ccc(-c2cc(CCCO[N+](=O)[O-])nn2C2CCCCC2)cc1`: 77 °C; for `CCCC1=C(C#N)C(c2cccc(N3CCOCC3)c2)c2c[nH]nc2N1` (stereo unspecified): 196 to 200 °C; for `Fc1ccccc1-c1ncn(CCCCN2CCOCC2)c1-c1ccncc1`: 103 to 104 °C.
Under `COc1cccc(Nn2cnc(C)c2-c2ccccc2)c1` stands 156 to 158 °C.
For `O=C1CC2CS(=O)c3ccccc3C2=NN1c1ccc(Cl)cc1` (stereo unspecified), the melting point lay in the range of 190 to 192 °C.
Compound `O=C(O)c1ccc2c(c1)ncn2-c1cc(Cl)ccc1O` came in with a melting point of 308 to 310 °C.
As for `CCCc1cc(C(=O)O)ccc1OCCCCCCc1cccc(OC)c1OC`, the melting point fell in the range of 107 to 108 °C.
The same measure for `COC(=O)C(CCCCNC(=O)c1ccc(N)cc1)n1c2ccccc2c2ccccc21` (stereo unspecified): 90 to 91 °C; for `CN1CCC2(C)c3cc(O)cc([N+](=O)[O-])c3N(C)C12` (stereo unspecified): 170 to 171 °C.
Under `O=Cc1ccc(-c2ccc3ncnc(Nc4ccc(OCc5cccc(F)c5)c(Cl)c4)c3c2)cc1` stands 237 to 238 °C; under `O=CN(Cc1cccs1)C1(c2ccc(Cl)cc2)CCC1`, 114 to 119 °C.
Under `CCCCCN(CCC12CC3CC(CC(C3)C1)C2)C(=O)NCc1cccnc1` stands 88.5 to 102 °C.
As to `CCCc1nc(C#N)c(C#N)n1C(c1ccccc1)(c1ccccc1)c1ccccc1`, the melting point was determined as 107 °C.
As to `O=C(O)c1ccc(F)c2c1CC(N(CCCc1c[nH]c3ccc(F)cc13)C1CCC1)CO2` (stereo unspecified), the melting point came to 140 °C.
In turn, `CCOC(=O)c1oc(-c2ccc(Cl)cc2)cc(=O)c1Br` came in with a melting point of 146 to 149 °C.
Compound `CCCn1c(COCC)nc2c(N)nc3ccc(OCc4ccccc4)cc3c21` displayed a melting point of 152 to 154 °C.
Take `CC(C)(C)NC(=O)C#CBr`: the melting point was 113 °C.
As to `CC(=O)OC1(C)CCC2C3C(C#N)CC4=CC(=O)CCC4(C)C3CCC21C` (stereo unspecified), the melting point was in the range of 211 to 216 °C.
The compound `CCN(CC)C(=O)Cc1c(-c2ccc(O)cc2)nn2c(C)cc(C)nc12` displayed a melting point of 242 to 247 °C.
As to `CC(C)(C)C(=O)Cn1cncn1`, the melting point fell in the range of 62 to 64 °C.
Under `COC(=O)c1ccc(/C=C/c2ccc(SC)cc2)nc1` stands 157 to 159 °C.
Under `CCOC(=O)c1cc2c(C)noc2nc1C(=O)OCC` stands 95 to 99 °C; under `O=C(Nc1ccc(-n2nc(C(F)(F)F)cc2C(F)(F)F)cc1)c1ccc(Cl)cc1F`, 156 to 158 °C.
`Cc1cc(-c2ccccc2)nc2nc(SCc3ccccc3)nn12` showed a melting point of 154 to 155 °C.
Under `C[C@@H](O)CCN1CCC(c2noc3cc(F)ccc23)CC1` stands 82 to 84 °C.
Regarding `Cc1oc(-c2ccccc2)nc1CCc1nc(CCl)cs1`, the melting point fell in the range of 89 to 90 °C.
Under `CCCn1c(=O)c2[nH]c([C@@H](C)Cc3ccccc3)nc2n(CCC)c1=O` stands 141 to 142 °C.
On to `CCc1c(Cc2[nH]c(C=O)c(C)c2CCCOC(C)=O)[nH]c(Cc2[nH]c(C=O)c(C)c2CCCOC(C)=O)c1CC`, for which the melting point fell in the range of 179 to 181 °C.
Turning to `CCCOc1cc(-c2ccc3c(c2)C=C(C(=O)Nc2ccc(CN(C)C4CCOCC4)cc2)CCS3(=O)=O)ccc1C#N`, the melting point was 201 to 203 °C.
The same measure for `OC1CSC(Oc2cc(-c3cccnc3)ccc2F)C(O)C1O` (stereo unspecified): 100 °C; for `COc1cc2c(cc1F)CCN=C2C1(c2ccc(Cl)cc2Cl)CC1`: 151 to 154 °C; for `COc1cc(CCl)c(CCNC(=O)C(F)(F)F)cc1OC`: 140 °C.
The same measure for `COC(=O)C(=O)c1cc2cc(C#N)ccc2o1`: 196 to 199 °C; for `CC(C)S(=O)(=O)N1CCC2(CC1)OCCO2`: 66 to 67 °C.
In turn, `O=C(OC(c1ccccc1)c1ccccc1)C(=O)N1C(=O)[C@@H]2N=C(c3ccccc3)O[C@@H]21` yielded a melting point of 182 °C.
Turning to `O=C(Nc1ccc(-c2ncc(-c3ccc(NC(=O)C4CCCCCC4)cc3)[nH]2)cc1)c1cccnc1`, the melting point fell in the range of 326 to 328 °C.
Under `CCCCc1ccc(N(Cc2ccc(N(C)C)cc2)C(=O)C2CCCc3c(O)cccc32)cc1` (stereo unspecified) stands 138 °C.
Compound `O=S(=O)(Nc1nc(Cl)cnc1OCc1ccco1)c1ccc(Cl)s1` gave a melting point of 130 to 133 °C.
Regarding `CCOC(=O)C1=C(C)NC(C)=C(C(=O)OCC)C1c1ccccc1Br`, the melting point was in the range of 144 to 145 °C.
Turning to `O=C1N(Cc2c[nH]cn2)CCN1c1cccc(Cl)c1`, the melting point was in the range of 201 to 203 °C.
As for `N#Cc1c(N)nc2ccccc2c1Nc1cccs1`, the melting point lay within 208 to 209 °C.
In turn, `COC(=O)N(C(=O)C(=O)c1cn(Cc2ccc(Cl)cc2)c2ccccc12)c1ccc2ncccc2c1` displayed a melting point of 178 °C.
In turn, `CC(=O)c1ccc2c(c1)C=CC(=O)CO2` showed a melting point of 92 to 93 °C.
The same measure for `O=C(NCc1ccccc1)C1C=Nc2ccccc2S1` (stereo unspecified): 160 to 162 °C; for `CO/C=C(/C(=O)OC)n1cccc1C=O`: 58 to 59 °C.
The same measure for `CC(=NNC(=O)C1CCC1)c1ccncc1`: 139 °C; for `CCc1c(Cc2[nH]c(Cc3[nH]c(C=O)c(C)c3CC)c(CC)c2CC)[nH]c(C=O)c1C`: 202 to 203 °C; for `Cc1ccc(-c2ncc3c(n2)CCCC3)nc1-c1ccc(C#N)cc1`: 178 to 182 °C.
Compound `CCCN(CCCCNC(=O)N1CCN(c2ccccc2)CC1)C1CCc2ncsc2C1` (stereo unspecified) came in with a melting point of 120 °C.
Under `COC(=O)c1cc(C(=O)c2c(C)c(OC)c3c(OCC(=O)O)cccn23)ccc1N` stands 164 °C; under `CCCCCCCCCCCOc1ccc(-c2ccc(OCC(C)OC(=O)CC(C)C)cc2)cc1` (stereo unspecified), 65.4 to 66.5 °C.
In the case of `O=S(=O)(NC(CO)CO)c1ccc(Br)s1`, the melting point is 80 °C.
The same measure for `CCC(C)(CCc1ccccc1)NC(=O)n1nc(C)n(N)c1=O` (stereo unspecified): 78 °C; for `N#CC[C@H](NC(=O)c1ccc2ccccc2c1)C(=O)O`: 95 to 100 °C.
The same measure for `CC1(C)COC(c2ccc(N)c(N)c2)(c2cccs2)OC1`: 178 °C; for `c1cc2[nH]ncc2cc1NC1CC2CCC(C1)N2` (stereo unspecified): 236 to 238 °C.
Under `CN1CCC(Nc2nc3ccccc3n2Cc2cnccn2)CC1` stands 169 °C.
The compound `CS(=O)(=O)c1c(CC(=O)O)n(Cc2ccc(Cl)cc2)c2ccc(F)cc12` displayed a melting point of 202 °C.
Under `CC1(C)CC(=Cc2nc3cc(O)ccc3o2)CC(C)(C)C1` stands 160 to 162 °C; under `O=C1CCC2(CN1)C(=O)C(=O)c1ccccc12` (stereo unspecified), 227 to 228 °C; under `O=C(O)C(=O)Cc1ccc(-c2ccccc2)cc1`, 215 to 218 °C.
For `N=C(N)Cc1ccccc1-n1cnc2cnc3ccc(-c4ccccc4)cc3c21`, the melting point lay in the range of 261 to 263 °C.
Compound `COC(=O)[C@H](/C=C/[C@H](Cc1ccccc1)NC(=O)OC(C)(C)C)Cc1ccccc1` showed a melting point of 84 to 85 °C.
The compound `CCc1cc(-c2cccc(NC(C)=O)n2)c(OC)cc1OCCN(C)C` returned a melting point of 114 °C.
`COC(=O)N1CC(=O)N(C)c2ccc(F)cc21` yielded a melting point of 206 to 208 °C.
The same measure for `Cn1c2ccccc2c2c3c(c4c5cc(O)ccc5n(CCC#N)c4c21)C(=O)NC3=O`: 303 to 306 °C.
In turn, `CN(C)C(=O)CNc1cc(-c2ccccc2)nc(-c2ccc(C(F)(F)F)cc2)n1` had a melting point of 178 to 179 °C.
Under `N=C(N)Nc1nc(-c2ccccc2[N+](=O)[O-])c2cc(Cl)ccc2n1` stands 150 °C; under `CCN1c2ncccc2C(=O)N(C)c2ccc(-c3c[nH]nc3C)nc21`, 113 to 115 °C.
Under `CS(=O)(=O)c1ccc(C(CC2CCCC2)C(=O)Nc2nc(CO)cs2)cc1` (stereo unspecified) stands 124 to 126 °C.
Under `CCc1ccc(S(=O)(=O)NC(C)(C)C)o1` stands 71 to 72 °C.
As for `O=C1CC2(C(=O)N1)C(=O)N(Cc1ccc(Br)cc1F)c1ccccc12` (stereo unspecified), the melting point was 218 to 220 °C.
`OCCc1ccc2cc(Br)ccc2n1`: the melting point was in the range of 103 to 104 °C.
`N#Cc1ccc(C(=O)C(Br)C(Br)c2ccc(C#N)cc2)cc1` (stereo unspecified) had a melting point of 192 to 193 °C.
On to `O=C(N=c1sc2cc(OC(F)(F)F)ccc2n1CCCO)C(F)(F)F`, for which the melting point worked out at 144 °C.
Turning to `CCOC(=O)C(NC(=O)NN1CC(=O)NC1=O)c1cccs1` (stereo unspecified), the melting point is 151 to 155 °C.
The same measure for `CC(C)c1cccc(C(C)C)c1NC(=O)C(Cc1ccccc1)NC(=O)NCc1ccccc1` (stereo unspecified): 240 to 241 °C; for `CCc1cc(Cl)c(-n2ncc(C#N)c2N)c(Cl)c1`: 189 to 190 °C; for `O=C(NC1=NCCCC1)Nc1ccccc1`: 153 to 154 °C.
Under `C#Cc1ccc(Br)c(C(F)(F)F)c1` stands below 50 °C; under `CCOC1CC(O)C(=O)N1S(=O)(=O)c1ccccc1` (stereo unspecified), 108 to 116 °C.
Regarding `COC(=O)CN(CCNC(=O)OC(C)(C)C)C(=O)Cc1cc2c(C)ccnc2[nH]c1=O`, the melting point lay in the range of 175 to 177 °C.
`CCOC(=O)C[C@H]1O[C@H](c2ccc(OCc3ccccc3)cc2OC)c2cc(Cl)ccc2N(CC(C)(C)C)C1=O` (relative stereo) yielded a melting point of 130 to 131 °C.
`NC(=O)NCCNc1ccc(N)cc1Cl` gave a melting point of 160 °C.
The compound `CC(C)(C)C(=O)Nc1ccc(Br)cn1` came in with a melting point of 57 to 59 °C.
Compound `CCCCOC(=O)COc1ccc(C(=O)N(C)c2ccccc2Sc2ccccc2-c2nnn[nH]2)cc1` showed a melting point of 148 to 150 °C.
For the compound `CC1(C)C(=O)Nc2cc3[nH]c(NC(=O)c4ccncc4)nc3cc21`, the melting point was above 300 °C.
The same measure for `CCCCc1cn2nc3c(c(=O)n(CCC)c(=O)n3Cc3ccccc3)c2n1C`: 139 to 140 °C.
The same measure for `Cc1c(C)c2c(c(Cl)c1C=O)OCC2`: 129 °C.
Under `CCCCN(C)C(=O)c1ccc(S(=O)(=O)CCCn2c(CCC)nc3c(N)nc(C)c(C)c32)cc1` stands 127 to 129 °C.
